Reference: patent US5604226A, “Pyridazinone derivatives, processes for production thereof and use thereof” (Nihon Nohyaku Co., Ltd., priority 1993, dated 1997)

Legend:
[1] = test system: thrombocytopenia in mice (collagen-induced, platelet count); experiment: Activity of preventing thrombocytopenia in mice, collagen i.v. (Experiment 3); type: in vivo, male ddY mice; details: Mus musculus, 3.0 mg/kg oral, 1 hour before collagen 0.5 mg/kg i.v., * p = 5%, ** p = 1%, *** p = 0.1%, read-out: Average Inhibition Rate (platelet count; normal mouse 100, control mouse 0)
Description: Activity of preventing thrombocytopenia in mice:
Collagen (Holm Co.) diluted with physiological saline was intravenously given through the vein to male ddY mice of 6 weeks old, weighing 28-31 g, which had been fasted for 4-5 hours, in a dose of 0.5 mg/kg. Five minutes after, blood was collected from the lower thigh vein under pentobarbital anesthesia through a plastic syringe treated with heparin containing 3.8% sodium citrate. The drug was orally given an hour before the collagen administration. The platelet count was measured with Sysmex E-4000. The inhibition activity is shown in terms of percentage of the platelet count when the platelet count of normal mouse was made 100 and the platelet count of control mouse was made 0.

[2] = test system: ADP-inducing platelet aggregation; experiment: Rabbit exo-vivo test, ADP-inducing platelet aggregation after oral administration (Experiment 2); type: in vivo, Japanese white rabbits
Description: Japanese white rabbits weighing 3.0-4.0 kg were fasted for 18 hours. A drug suspension in 2% gum arabic aqueous solution was orally given to the animal in a definite dose. Blood was collected 1 and 4 hours after. PRP was prepared in a manner similar to Experiment 1 and ADP-inducing platelet aggregation function was determined. An inhibition rate was calculated based on an aggregation rate of ADP prior to administration of the compound.

[3] = test system: Platelet aggregation (ADP, rabbit platelet rich plasma); experiment: Platelet aggregation inhibition in rabbit PRP, ADP-induced, Born's turbidimetry (Experiment 1); type: cell-based; details: Oryctolagus cuniculus, 0.05 h, ADP 2 to 4 μM, 3 min incubation, read-out: Aggregation Inhibition Rate; for inhibition at 1 µg/mL: 10^-6 g/ml; for inhibition at 0.1 µg/mL: 10^-7 g/ml
Description: Blood was collected from the ear vein of rabbit, together with 1/10 volume sodium citrate. Centrifugation at 1,200 rpm for 10 minutes gave the supernatant which was made platelet rich plasma (PRP). The blood was further centrifuged at 3,000 rpm for 10 minutes to give platelet poor plasma (PPP). The platelet count of PRP was adjusted to 300,000/μl with PPP, which was provided for the test. Platelet aggregation was determined with aggregometer (HEMATRACERVI, Niko Bioscience Co.) based on Born's turbidimetry. That is, 200 μl of PRP was charged in a cell and 1 μl of a drug solution dissolved in dimethylsulfoxide was added thereto. After incubation for 3 minutes, ADP was added in a concentration of 2 to 4 μM to cause aggregation. Change in transmittance in the cell was then monitored. The results are shown in Table 2, in terms of aggregation inhibition rate which was determined by comparing a transmittance of control with that obtained at the maximum aggregation on an aggregation curve when the transmittance of PRP was made 0% and the transmittance of PPP was made 100%.

| Structure (SMILES) | inhibition in vivo at 3 mg/kg [1] [%] | Average Inhibition Rate ([2]; 3 mg/kg oral, 1 Hour) [%] | Average Inhibition Rate ([2]; 3 mg/kg oral, 4 Hours) [%] | Average Inhibition Rate ([2]; 30 mg/kg oral, 1 Hour) [%] | Average Inhibition Rate ([2]; 30 mg/kg oral, 4 Hours) [%] | inhibition at 1 µg/mL [3] [%] | inhibition at 0.1 µg/mL [3] [%] |
| --- | --- | --- | --- | --- | --- | --- | --- |
| COc1ccc(CNc2c(OCCCc3ccccc3)n[nH]c(=O)c2Br)cc1OC [C, reference compound] | 27.4 | 20 | 23 | 36 | 35 |  |  |
| COc1ccc(CNc2c(OCC[S+]([O-])c3ccccc3)n[nH]c(=O)c2Br)cc1OC (stereo not drawn) [Compound 8, 4-bromo-5-(3,4-dimethoxyphenylmethylamino)-6-[2-(phenylsulfinyl)ethyloxy]-3(2H)-pyridazinone] | 45 | 48 | 23 | 72 | 70 | 100 | 82 |
| COc1ccc(CNc2c(OCCSc3ccc([N+](=O)[O-])cc3)n[nH]c(=O)c2Br)cc1OC [Compound 39, 4-bromo-5-(3,4-dimethoxyphenylmethylamino)-6-[2-(4-nitrophenylthio)ethyloxy]-3(2H)-pyridazinone] | 30.4 |  |  |  |  | 100 | 93 |
